Measurements reported in patent US20180015100A1, “COMBINATION PRODUCTS FOR THE TREATMENT OF BACTERIAL INFECTIONS AND METHODS OF PRODUCING OR DOSING OF SAME” (priority 2016, published 2018).
In brackets after ≈: the same amount, converted by molar mass. Where two headings read alike, the source gives them in different places.

Assays:
Format in all cases: cell-based
[1] = tested on: Citrobacter freundii isolates; assay: MIC of cephalosporins alone or with clavulanate/tazobactam; details: clavulanate 2:1, tazobactam 4 μg/mL
[2] = tested on: Escherichia coli isolates; assay: as above; details: clavulanate 2:1, tazobactam 4 μg/mL
[3] = tested on: Klebsiella oxytoca isolates; assay: as above; details: clavulanate 2:1, tazobactam 4 μg/mL
[4] = tested on: 385 Escherichia coli and 126 Klebsiella pneumoniae isolates; assay: MIC, MIC50 and MIC90 by reference broth microdilution against 511 UTI/bloodstream isolates (USA and Europe 2014-2015)
[5] = 365 isolates producing CTX-M enzymes

Question: With `Nc1nc(/C(=C/CC(=O)O)C(=O)N[C@@H]2C(=O)N3C(C(=O)O)=CCS[C@H]23)cs1` [Ceftibuten, ceftibuten] as the compound, how does the MIC ([1]; ACFR1034 (CTX-M-15, TEM-OSBL)) read?
Answer: > 64 mg/L

Question: What about the MIC ([1]; ACFR1035 (CTX-M-3, TEM-OSBL)) of the same compound?
Answer: 16 mg/L

Question: What about the MIC ([2]; AECO001 (no ESBL)) of the same compound?
Answer: 0.5 mg/L

Question: What about the MIC ([2]; AECO1078 (CTX-M-15)) of the same compound?
Answer: 32 mg/L

Question: What about the MIC ([2]; AECO1147 (CTX-M-15)) of the same compound?
Answer: 4 mg/L

Question: And the MIC ([2]; AECO1157 (CTX-M-15, TEM-OSBL))?
Answer: 8 mg/L

Question: What about the MIC ([2]; AECO1159 (CTX-M-15)) of the same compound?
Answer: 16 mg/L

Question: And the MIC ([2]; AECO1169 (CTX-M-1, TEM-OSBL))?
Answer: 1 mg/L

Question: And the MIC ([2]; AECO1172 (CTX-M-14))?
Answer: 2 mg/L

Question: And the MIC ([3]; AKOX1005 (SHV-2, TEM-1, DHA-1))?
Answer: 2 mg/L

Question: What about the MIC ([3]; AKOX1009 (CTX-M-15)) of the same compound?
Answer: 4 mg/L

Question: And the “% of the isolates inhibited at ≦1 μg/mL” value [4, 5]?
Answer: 19.7%

Question: And the “% of the isolates inhibited at ≦8 μg/mL” value [4, 5]?
Answer: 64.4%

Question: What about the MIC50 ([4]; 365 isolates producing CTX-M enzymes (no transferrable AmpC/carbapenemase)) of the same compound?
Answer: 8 mg/L (≈ 19.5 µM)

Question: What about the MIC90 ([4]; 365 isolates producing CTX-M enzymes (no transferrable AmpC/carbapenemase), read-out: MIC90) of the same compound?
Answer: 32 mg/L (≈ 78 µM)

Question: What about the MIC90 ([4]; 379 E. coli or K. pneumoniae isolates genotyped for CTX-M, TEM, or SHV ESBLs, 2:1 ratio) of the same compound?
Answer: ~32 mg/L

Question: What about the MIC50 ([4]; 511 isolates) of the same compound?
Answer: 8 mg/L (≈ 19.5 µM)

Question: And the MIC90 ([4]; 511 isolates)?
Answer: >32 mg/L

Question: What about the MIC90 ([4]; 511 isolates, read-out: MIC90) of the same compound?
Answer: > 32 mg/L

Question: And the MIC50 ([4]; All CTX-M-producing K pneumoniae (71))?
Answer: 8 mg/L (≈ 19.5 µM)

Question: What about the MIC90 ([4]; All CTX-M-producing K pneumoniae (71), read-out: MIC90) of the same compound?
Answer: > 32 mg/L

Question: What about the MIC50 ([4]; All CTX-M-producing isolates (365)) of the same compound?
Answer: 8 mg/L (≈ 19.5 µM)

Question: What about the MIC90 ([4]; All CTX-M-producing isolates (365), read-out: MIC90) of the same compound?
Answer: 32 mg/L (≈ 78 µM)

Question: What about the MIC50 ([4]; Enterobacteriaceae (511)) of the same compound?
Answer: 8 mg/L (≈ 19.5 µM)

Question: And the MIC90 ([4]; Enterobacteriaceae (511), read-out: MIC90)?
Answer: > 32 mg/L

Question: What about the MIC50 ([4]; Escherichia coli, All CTX-M-producing E. coli (294)) of the same compound?
Answer: 8 mg/L (≈ 19.5 µM)

Question: What about the MIC90 ([4]; Escherichia coli, All CTX-M-producing E. coli (294), read-out: MIC90) of the same compound?
Answer: 32 mg/L (≈ 78 µM)

Question: What about the MIC50 ([4]; Escherichia coli, E. coli (385)) of the same compound?
Answer: 8 mg/L (≈ 19.5 µM)

Question: And the MIC90 ([4]; Escherichia coli, E. coli (385), read-out: MIC90)?
Answer: > 32 mg/L

Question: What about the MIC50 ([4]; Isolates producing CTX-M Group 1 (276)) of the same compound?
Answer: 8 mg/L (≈ 19.5 µM)

Question: And the MIC90 ([4]; Isolates producing CTX-M Group 1 (276), read-out: MIC90)?
Answer: > 32 mg/L

Question: What about the MIC50 ([4]; Isolates producing CTX-M Group 9 (92)) of the same compound?
Answer: 1 mg/L (≈ 2.44 µM)

Question: And the MIC90 ([4]; Isolates producing CTX-M Group 9 (92), read-out: MIC90)?
Answer: 16 mg/L (≈ 39 µM)

Question: What about the MIC50 ([4]; Isolates producing SHV ESBL (18)) of the same compound?
Answer: 1 mg/L (≈ 2.44 µM)

Question: What about the MIC90 ([4]; Isolates producing SHV ESBL (18), read-out: MIC90) of the same compound?
Answer: 16 mg/L (≈ 39 µM)

Question: What about the MIC50 ([4]; Isolates producing transferable AmpC (57)) of the same compound?
Answer: > 32 mg/L

Question: What about the MIC90 ([4]; Isolates producing transferable AmpC (57), read-out: MIC90) of the same compound?
Answer: > 32 mg/L

Question: What about the MIC50 ([4]; K pneumoniae (126)) of the same compound?
Answer: 8 mg/L (≈ 19.5 µM)

Question: What about the MIC90 ([4]; K pneumoniae (126), read-out: MIC90) of the same compound?
Answer: > 32 mg/L

Question: And the MIC50 ([4]; KPC-producers (25))?
Answer: 8 mg/L (≈ 19.5 µM)

Question: What about the MIC90 ([4]; KPC-producers (25), read-out: MIC90) of the same compound?
Answer: 32 mg/L (≈ 78 µM)

Question: And the “cumulative % of isolates at MIC” value ([4]; MIC 0.015 μg/mL, All CTX-M-producing K pneumoniae (71))?
Answer: (0.0) %

Question: And the “cumulative % of isolates at MIC” value ([4]; MIC 0.015 μg/mL, All CTX-M-producing isolates (365))?
Answer: (0.0) %

Question: And the “cumulative % of isolates at MIC” value ([4]; MIC 0.015 μg/mL, Isolates producing CTX-M Group 9 (92))?
Answer: (0.0) %

Question: And the “cumulative % of isolates at MIC” value ([4]; MIC 0.015 μg/mL, Isolates producing SHV ESBL (18))?
Answer: (0.0) %

Question: And the “cumulative % of isolates at MIC” value ([4]; MIC 0.015 μg/mL, K pneumoniae (126))?
Answer: (0.0) %

Question: What about the “cumulative % of isolates at MIC” value ([4]; MIC 0.03 μg/mL, All CTX-M-producing K pneumoniae (71)) of the same compound?
Answer: (1.4) %

Question: And the “cumulative % of isolates at MIC” value ([4]; MIC 0.03 μg/mL, All CTX-M-producing isolates (365))?
Answer: (0.3) %

Question: What about the “cumulative % of isolates at MIC” value ([4]; MIC 0.03 μg/mL, E. coli (385)) of the same compound?
Answer: (0.0) %

Question: And the “cumulative % of isolates at MIC” value ([4]; MIC 0.03 μg/mL, Isolates producing CTX-M Group 9 (92))?
Answer: (1.1) %

Question: And the “cumulative % of isolates at MIC” value ([4]; MIC 0.03 μg/mL, Isolates producing SHV ESBL (18))?
Answer: (11.1) %

Question: And the “cumulative % of isolates at MIC” value ([4]; MIC 0.03 μg/mL, K pneumoniae (126))?
Answer: (4.0) %

Question: And the “cumulative % of isolates at MIC” value ([4]; MIC 0.06 μg/mL, All CTX-M-producing E. coli (294))?
Answer: (0.0) %

Question: What about the “cumulative % of isolates at MIC” value ([4]; MIC 0.06 μg/mL, All CTX-M-producing K pneumoniae (71)) of the same compound?
Answer: (2.8) %

Question: What about the “cumulative % of isolates at MIC” value ([4]; MIC 0.06 μg/mL, All CTX-M-producing isolates (365)) of the same compound?
Answer: (0.5) %

Question: And the “cumulative % of isolates at MIC” value ([4]; MIC 0.06 μg/mL, E. coli (385))?
Answer: (0.3) %

Question: And the “cumulative % of isolates at MIC” value ([4]; MIC 0.06 μg/mL, Isolates producing CTX-M Group 9 (92))?
Answer: (2.2) %

Question: What about the “cumulative % of isolates at MIC” value ([4]; MIC 0.06 μg/mL, Isolates producing SHV ESBL (18)) of the same compound?
Answer: (16.7) %

Question: What about the “cumulative % of isolates at MIC” value ([4]; MIC 0.06 μg/mL, K pneumoniae (126)) of the same compound?
Answer: (6.3) %

Question: What about the “cumulative % of isolates at MIC” value ([4]; MIC 0.5 μg/mL, All CTX-M-producing E. coli (294)) of the same compound?
Answer: (10.5) %

Question: And the “cumulative % of isolates at MIC” value ([4]; MIC 0.5 μg/mL, All CTX-M-producing K pneumoniae (71))?
Answer: (7.0) %

Question: What about the “cumulative % of isolates at MIC” value ([4]; MIC 0.5 μg/mL, All CTX-M-producing isolates (365)) of the same compound?
Answer: (9.9) %

Question: And the “cumulative % of isolates at MIC” value ([4]; MIC 0.5 μg/mL, E. coli (385))?
Answer: (10.4) %

Question: What about the “cumulative % of isolates at MIC” value ([4]; MIC 0.5 μg/mL, Enterobacteriaceae (511)) of the same compound?
Answer: (10.8) %

Question: And the “cumulative % of isolates at MIC” value ([4]; MIC 0.5 μg/mL, Isolates producing CTX-M Group 1 (276))?
Answer: (3.6) %

Question: What about the “cumulative % of isolates at MIC” value ([4]; MIC 0.5 μg/mL, Isolates producing CTX-M Group 9 (92)) of the same compound?
Answer: (28.3) %

Question: What about the “cumulative % of isolates at MIC” value ([4]; MIC 0.5 μg/mL, Isolates producing SHV ESBL (18)) of the same compound?
Answer: (38.9) %

Question: And the “cumulative % of isolates at MIC” value ([4]; MIC 0.5 μg/mL, K pneumoniae (126))?
Answer: (11.9) %
